Laboratory results from US6596307B1, “Process for preparing pharmaceutical bulk material having uniform dissolution” (Eli Lilly and Company, priority 2001, dated 2003).
Where “and” joins values, the source holds several entries; their conditions need not be identical. Equal entries are not always repeated. Each block holds one compound with its values, some of them ahead of it.

How the values were obtained:
Format in all cases: physicochemical
[1] = Model Dissolution Test (capsule filled with drug substance only); conditions: no related substances added; failed the test
Procedure: Approximately 523 mg of bulk cefaclor is filled into an empty 500 mg cefaclor capsule (KG3062). The USP monograph dissolution test is then performed with filtered samples being withdrawn at 15, 30, and 45 minutes. The test conditions are USP Apparatus 2 at 50 rpm using 900 ml of purified water maintained at 37° C. Visual examination is done at the time of sample collection. Visual observations range from “the material is completely dissolved and/or dispersed within 5 minutes with no visible residue or agglomerates to a large intact mass remains at the end of 45 minutes that is hard to the touch.” An ultraviolet (UV) assay is conducted on the filtered aliquots to determine the percent dissolution.

[2] = Near Infrared Dihydrate Conversion Test (NIR onset time); conditions: for NIR Onset Time: cefaclor dihydrate dried in fluidized bed to different water contents (Table 2)
Description: “NIR onset time” refers to the time between addition of water to a cefaclor sample and the observation of an absorption peak at about 5798 cm^−1 (1725 nm) as measured by Near-Infrared Reflectance Spectroscopy (NIRS). Depending upon the particular instrument used, the exact peak measurement may vary within the standard deviation established for that particular instrument.
The NIRS conversion test measures the time in minutes before the onset of the crystal form reversion for a sample of cefaclor bulk. […] To ensure that a lot will have an acceptable dissolution rate, one generally strives for a NIR onset time of >7 minutes, preferably >9 minutes and more preferably >10 minutes.
Approximately 1 to 2 grams of sample was spread in a thin layer on the bottom of an open aluminum weighing pan and placed in a constant humidity chamber, containing a saturated aqueous solution of K2HPO4, for at least two hours prior to analysis. Following equilibration in the humidity chamber, the sample was packed into a 2 mm×6 mm, stainless steel sample cup until full (approximately 35 mg), and 6 μL of water placed in the center of the sample. NIR data were collected using the NIR Systems model 5000 equipped with a fiber optic diffuse-reflectance probe, positioned over the sample cup. Immediately following addition of the water, NIR spectra were recorded from 1100 to 2500 nm approximately each 30 seconds. The time elapsed prior to the first appearance of the dihydrate peak at 1725 nm (5798 cm^−1) was reported as the NIR onset time.

[3] = USP 23 Standard Dissolution Test for Cefaclor Capsules; design: Capsule dissolution rate, 1st stage (Avg. n = 6) / Capsule dissolution rate, 1st stage, individual unit / Capsule dissolution rate, 2nd stage, individual unit: unit: %; conditions: water 37° C., 30 minutes, then rehydrated; for Capsule dissolution rate, 1st stage, individual unit: % dissolved
Procedure: Dissolution (711): The test conditions are USP Apparatus 2 at 50 rpm using 900 ml of purified water maintained at 37° C. for 30 minutes. Determine the amount of Cefaclor monohydrate dissolved from ultraviolet absorbances at the wavelength of maximum absorbances at about 264 nm of filtered portions of the solution under test, suitably diluted with water, in comparison with a Standard solution having a know concentration of USP Cefaclor RS in the same medium.
Dissolution testing is continued with additional units through three stages unless the results conform at either the 1st or 2nd stage according to the following acceptance
The quantity, Q, is the % of dissolved active ingredient in the specification. For Cefaclor, at Stage 1, each individual unit must be at least 85% dissolved in 30 minutes to pass the testing. If any of the 6 units tested is less than 85% dissolved, the product fails level S1 and you must go to S2. At Stage 2, the mean of the twelve units tested (first 6 from S1 and 6 from S2) must be at least 80% dissolved and no unit may be less than 65% dissolved. If these criteria are not met, the product fails the level S2 specification and you must go to S3. At Stage 3, the mean of the 24 units tested (6 from S1+6 from S2+12 from S3) must be at least 80% dissolved, no more than 2 units may be less than 65% dissolved, and none of the units may be less than 55% dissolved.

[4] = Solubility in water of crystal forms
[5] = X-ray diffraction conversion rate test (monohydrate to dihydrate after addition of water); conditions: added at 0.5% by weight to poorly dissolving lot, mixed dry; 1 ml water to 0.80 g sample
Procedure: Through X-ray diffraction studies of readily dissolving and incompletely dissolving lots of cefaclor, it was determined that all lots are initially in the same crystallographic state (monohydrate). Upon addition of water to readily dissolving lots, there is no change in the X-ray powder diffraction pattern over a five minute period. In contrast, when water is added to incompletely dissolving lot of cefaclor, substantial amounts of the dihydrate form are detected in less than five minutes. In an older lot of cefaclor, no dihydrate was detected for as long as two days, at which time the study was discontinued.
The Δ^2-isomer was added to a poorly dissolving lot of cefaclor at 0.5% concentration by weight. The sample was mixed in the dry state. After addition of 1 ml of water to a 0.80 g sample, the X-ray diffraction pattern was collected at different time intervals.
Kinetic studies were carried out using fraction 6 to gain a better understanding of how much would be required to achieve acceptable results in the model dissolution test.

[6] = bulk dried to 3.0 to 6.5% water (control method)
[7] = lots dried with full desiccation dried air
[8] = lots dried with 40 grains dried air

dissolved in thirty minutes [1]: 78%
Structure (SMILES): N[C@@H](C(=O)N[C@@H]1C(=O)N2C(C(=O)O)=C(Cl)CS[C@H]12)c1ccccc1

NIR onset time, upper control limit [2, 6]: approximately 2.5 minutes
average NIR onset time [2, 6]: 1.2 min
Structure (SMILES): N[C@@H](C(=O)NC1C(=O)N2C(C(=O)O)=C(Cl)CS[C@H]12)c1ccccc1 (some centres unmarked) [Cefaclor Monohydrate (Control), reference compound]

NIR Onset Time [2]: 3 min
Structure (SMILES): N[C@@H](C(=O)N[C@@H]1C(=O)N2C(C(=O)O)=C(Cl)CS[C@H]12)c1ccccc1.O [Sample 1-1]

NIR Onset Time [2]: 11 min
Structure (SMILES): N[C@@H](C(=O)N[C@@H]1C(=O)N2C(C(=O)O)=C(Cl)CS[C@H]12)c1ccccc1.O [Sample 1-2]

NIR Onset Time [2]: 2.5 min
Structure (SMILES): N[C@@H](C(=O)N[C@@H]1C(=O)N2C(C(=O)O)=C(Cl)CS[C@H]12)c1ccccc1.O [Sample 1-3]

Capsule dissolution rate, 1st stage, individual unit [3, 7]: 102% (2×) and 100% and 94% and 101% (2×)
Capsule dissolution rate, 1st stage (Avg. n = 6) [3, 7]: 100
Structure (SMILES): N[C@@H](C(=O)N[C@@H]1C(=O)N2C(C(=O)O)=C(Cl)CS[C@H]12)c1ccccc1 [Sample 2-1a]

Capsule dissolution rate, 1st stage, individual unit [3, 7]: 91 and 85 and 88 and 96 and 95 and 92
Capsule dissolution rate, 1st stage (Avg. n = 6) [3, 7]: 90
Structure (SMILES): N[C@@H](C(=O)N[C@@H]1C(=O)N2C(C(=O)O)=C(Cl)CS[C@H]12)c1ccccc1 [Sample 2-1b]

Capsule dissolution rate, 1st stage, individual unit [3, 7]: 90 and 95 and 97 and 89 and 96 (2×)
Capsule dissolution rate, 1st stage (Avg. n = 6) [3, 7]: 94
Structure (SMILES): N[C@@H](C(=O)N[C@@H]1C(=O)N2C(C(=O)O)=C(Cl)CS[C@H]12)c1ccccc1 [Sample 2-1c]

Capsule dissolution rate, 1st stage, individual unit [3, 8]: 97 and 92 and 95 and 81 and 98 and 101
Capsule dissolution rate, 1st + 2nd stage (Avg. n = 12) [3, 8]: 96
Capsule dissolution rate, 1st stage (Avg. n = 6) [3, 8]: 94
Capsule dissolution rate, 2nd stage (Avg. n = 6) [3, 8]: 98
Capsule dissolution rate, 2nd stage, individual unit [3, 8]: 98 and 95 and 99 and 100 and 97 and 96
Structure (SMILES): N[C@@H](C(=O)N[C@@H]1C(=O)N2C(C(=O)O)=C(Cl)CS[C@H]12)c1ccccc1 [Sample 2-2a]

effect of addition to a cefaclor bulk sample on dihydrate reversion time ([2]; indicator tests): decrease the reversion onset time
Structure (SMILES): N[C@@H](C(=O)N[C@@H]1C(=O)N2C(C(=O)O)=C(Cl)CS[C@H]12)c1ccccc1 [amorphous cefaclor, reference compound]

solubility in water relative to the monohydrate form [4]: less readily soluble
Structure (SMILES): N[C@@H](C(=O)N[C@@H]1C(=O)N2C(C(=O)O)=C(Cl)CS[C@H]12)c1ccccc1 [cefaclor dihydrate]

inhibitory effect on conversion to dihydrate [5]: minor inhibitory effect
Structure (SMILES): N[C@@H](C(=O)NC1C(=O)N2C(C(=O)O)C(Cl)=CS[C@H]12)c1ccccc1 (stereo partly drawn) [Δ^2-isomer]
